Source: patent publication US20240309028A1, “PHOSPHOLIPID COMPOUNDS AND METHODS OF MAKING AND USING THE SAME” (Gilead Sciences, Inc., priority 2023, published 2024)

What was measured:
[1] = test system: RSV strain A2; assay: RSV Cellomics assay for RSV A2 antiviral activity (EC50-RSV-Hep2-96-Cellomics); type: cell-based; settings: human respiratory syncytial virus, HEp-2, 72 h; Hep2 cells, RSV strain A2, MOI=0.05, 3 days, RSV F protein immunofluorescence; read-out: EC50-RSV-HEp2-96-Cellomics Example B1
Procedure: Example B1: RSV Cellomics Assay for RSV A2 Antiviral Activity (EC50-RSV-Hep2-96-Cellomics)
8×10^3 Hep2 cells are seeded into 96 well plates in 100 μL of media (DMEM supplemented with GlutaMAX, 10% FBS and Pen/Strep) and briefly spun at 50×g for 1 minute to attach cells. Cells were further allowed to attach with overnight incubation at 37° C.+5% CO2. The following day, the media was aspirated and 100 μL of fresh DMEM media containing 2% FBS was added. A three-fold dilution series of compounds of interest are then added to the plate using the Tecan D300e dispenser and the plate is normalized to the well with the highest volume of DMSO. The cells are next infected by adding 100 μL of media containing RSV strain A2 at an MOI=0.05 and the plates incubated for 3 days at 37° C.+5% CO2. Following the incubation, the media is removed, and the cells are washed once with 250 μL PBS and fixed with 250 μL ice-cold 100% methanol for 10 minutes at 4 C. The methanol is then removed and the plates air dried for 5 minutes and then washed once with 250 μL PBS to remove any residual methanol. The wells are then blocked 60 μL/well of BlockAid (B10710, Thermo-Fisher) for 1 hour at RT on rocker at which point the blocking buffer is carefully aspirated. Primary antibody against the RSV F protein (MAB 858-1) is then diluted 1:2000 in SuperBlock (37515, Thermo Fisher) and 50 μL of the primary antibody solution is added to each well. The plates are incubated at room temperature for 1 hour with gentle agitation and then washed with 250 μL of PBS-Tween 3 times. A goat anti-mouse AlexaFluor 647 conjugated secondary antibody (Sigma, A21235) is then diluted 1:2000 and Hoescht 33342 (H3570) at 1:1000 in SuperBlock and 50 μL added to the wells for 1 hour at 37° C. After incubation the antibody solution is aspirated, and the wells are then washed with 250 μL of PBS-Tween 3 times. To keep cells from drying out, 100 μL of PBS is added to each well and the plates are sealed with black plate seal. Fluorescence at the 647 nm wavelength is measured using a Cellomics CellInsight CX7 machine. Compound activity is determined as a percentage of the % positive cells (or average intensity) compared to DMSO treated RSV infected well controls following subtraction of uninfected controls. The EC50 values are then calculated using nonlinear regression analysis in GraphPad Prism.

[2] = test system: Respiratory syncytial virus recombinant with luciferase (RSV-Luc5); assay: NHBE RSV-Luc5 384-well assay (EC50 RSVFLUC NHBE-384); type: cell-based; settings: human respiratory syncytial virus, 72 h, read-out: EC50 RSV FLUC NHBE 384 V2 (per Ex. U)
Description: Example U. NHBE RSV-Luc5 384-Well Assay (EC50 RSVFLUC NHBE-384)
Normal Human Bronchial Epithelial (NHBE) cells were purchased from Lonza (Walkersville, MD Cat #CC2540) and maintained in BEGM Bronchial Epithelial Cell Growth Medium BulletKit (Lonza CC-3170).
Cells were thawed, expanded, and were used for experiments at passage 2. Respiratory syncytial virus recombinant with luciferase (RSV-Luc5) (≥1×107 Infectious Units/ml (IU/ml) determined by TCID50) was purchased from Microbiologics (Saint Cloud, MN). Viral replication was determined in NHBE cells in the following manner.
Compounds are prepared in 100% DMSO in 384-well polypropylene plates (Greiner, Monroe, NC, Cat #784201) with 8 compounds per plate in grouped replicates of 4 at 10 serially diluted concentrations (1:3). The serially diluted compounds were transferred to low dead volume Echo plates (Labcyte, Sunnyvale, CA, Cat #LP-0200).
The test compounds were spotted to 384-well assay plates (Greiner, Monroe, NC, Cat #781091) at 200 nL per well. NHBE cells were harvested and suspended in BEGM Bronchial Epithelial Cell Growth Medium BulletKit and seeded to the pre-spotted assay plates at 5,000 cells per well in 30 μL. RSV-Luc5 virus was diluted in BEGM Bronchial Epithelial Cell Growth Medium BulletKit at 500,000 Infectious Units (IU) per mL and 10 μL per well was added to the assay plates containing cells and compounds, for an MOI of 1. The assay plates were incubated for 3 days at 37° C. and 5% CO2. At the end of incubation, One-Glo reagent (Promega, Madison, WI, Cat #E6120) was prepared. The assay plates and One-Glo reagent were equilibrated to room temperature for at least 15 minutes. 40 μL per well of One-Glo reagent was added and the plates were incubated at room temperature for 15 minutes before reading the luminescence signal on an En Vision multimode plate reader (Perkin Elmer, Waltham, MA). Remdesivir was used as positive control and DMSO was used as negative control. Values were normalized to the positive and negative controls (as 0% and 100% replication, respectively) and data was fitted using non-linear regression analysis by Gilead's dose response tool. The EC50 value for each compound was defined as the concentration reducing the viral replication by 50%.

| SMILES | EC50 [1] [nM] | EC50 [2] [nM] |
| --- | --- | --- |
| CN(C)CCNc1cccc(CO[C@@H](CCCCCCCCCCCCCCCCCC(F)(F)F)COP(=O)(O)OC[C@@]2(C#N)O[C@@H](c3ccc4c(N)ncnn34)[C@H](O)[C@@H]2O)c1 [Compound 11, ((2R,3S,4R,5S)-5-(4-aminopyrrolo[2,1-f][1,2,4]triazin-7-yl)-2-cyano-3,4-dihydroxytetrahydrofuran-2-yl)methyl ((S)-2-((3-((2-(dimethylamino)ethyl)amino)benzyl)oxy)-20,20,20-trifluoroicosyl) hydrogen phosphate] | 12600 | 4590 |
| N#Cc1cc(F)cc(CO[C@H](CCCCCCCCCCCCCCCCCC(F)(F)F)COP(=O)(O)OC[C@@]2(C#N)O[C@@H](c3ccc4c(N)ncnn34)[C@H](O)[C@@H]2O)c1 [Compound 10, ((2R,3S,4R,5S)-5-(4-aminopyrrolo[2,1-f][1,2,4]triazin-7-yl)-2-cyano-3,4-dihydroxytetrahydrofuran-2-yl)methyl ((R)-2-((3-cyano-5-fluorobenzyl)oxy)-20,20,20-trifluoroicosyl) hydrogen phosphate] | 127 | 117 |
| N#C[C@]1(COP(=O)(O)OCCCCCCCCCCCCCCCCCCCC(F)(F)F)O[C@@H](c2ccc3c(N)ncnn23)[C@H](O)[C@@H]1O [Compound 5, ((2R,3S,4R,5S)-5-(4-aminopyrrolo[2,1-f][1,2,4]triazin-7-yl)-2-cyano-3,4-dihydroxytetrahydrofuran-2-yl)methyl (20,20,20-trifluoroicosyl) hydrogen phosphate] | 3420 | 4460 |
| N#Cc1cc(F)cc(CO[C@H](CCCCCCCCCCCCCCCCC(F)F)COP(=O)(O)OC[C@@]2(C#N)O[C@@H](c3ccc4c(N)ncnn34)[C@H](O)[C@@H]2O)c1 [Compound 4, ((2R,3S,4R,5S)-5-(4-aminopyrrolo[2,1-f][1,2,4]triazin-7-yl)-2-cyano-3,4-dihydroxytetrahydrofuran-2-yl)methyl ((R)-2-((3-cyano-5-fluorobenzyl)oxy)-19,19-difluorononadecyl) hydrogen phosphate] | 170 | 107 |
| N#Cc1cc(F)cc(CO[C@@H](CCCCCCCCCCCCCCCCCC(F)(F)F)COP(=O)(O)OC[C@@]2(C#N)O[C@@H](c3ccc4c(N)ncnn34)[C@H](O)[C@@H]2O)c1 [Compound 3, ((2R,3S,4R,5S)-5-(4-aminopyrrolo[2,1-f][1,2,4]triazin-7-yl)-2-cyano-3,4-dihydroxytetrahydrofuran-2-yl)methyl ((S)-2-((3-cyano-5-fluorobenzyl)oxy)-20,20,20-trifluoroicosyl) hydrogen phosphate] | 421 | 44 |
| N#C[C@]1(COP(=O)(O)OC[C@H](CCCCCCCCCCCCCCCCCC(F)(F)F)OCc2ccc3ccccc3n2)O[C@@H](c2ccc3c(N)ncnn23)[C@H](O)[C@@H]1O [Compound 7, ((2R,3S,4R,5S)-5-(4-aminopyrrolo[2,1-f][1,2,4]triazin-7-yl)-2-cyano-3,4-dihydroxytetrahydrofuran-2-yl)methyl ((S)-20,20,20-trifluoro-2-(quinolin-2-ylmethoxy)icosyl) hydrogen phosphate] | 1400 | 714 |
| N#Cc1cc(F)cc(CO[C@@H](CCCCCCCCCCCCCCCCC(F)(F)F)COP(=O)(O)OC[C@@]2(C#N)O[C@@H](c3ccc4c(N)ncnn34)[C@H](O)[C@@H]2O)c1 [Compound 6, ((2R,3S,4R,5S)-5-(4-aminopyrrolo[2,1-f][1,2,4]triazin-7-yl)-2-cyano-3,4-dihydroxytetrahydrofuran-2-yl)methyl ((S)-2-((3-cyano-5-fluorobenzyl)oxy)-19,19,19-trifluorononadecyl) hydrogen phosphate] | 293 | 86 |
| N#Cc1cc(F)cc(CO[C@H](CCCCCCCCCCCCCCCCCCCC(F)(F)F)COP(=O)(O)OC[C@@]2(C#N)O[C@@H](c3ccc4c(N)ncnn34)[C@H](O)[C@@H]2O)c1 [Compound 8, ((2R,3S,4R,5S)-5-(4-aminopyrrolo[2,1-f][1,2,4]triazin-7-yl)-2-cyano-3,4-dihydroxytetrahydrofuran-2-yl)methyl ((R)-2-((3-cyano-5-fluorobenzyl)oxy)-22,22,22-trifluorodocosyl) hydrogen phosphate] | 237 | 134 |
| COc1cc(C#N)ccc1CO[C@@H](CCCCCCCCCCCCCCCCCC(F)(F)F)COP(=O)(O)OC[C@@]1(C#N)O[C@@H](c2ccc3c(N)ncnn23)[C@H](O)[C@@H]1O [Compound 9, ((2R,3S,4R,5S)-5-(4-aminopyrrolo[2,1-f][1,2,4]triazin-7-yl)-2-cyano-3,4-dihydroxytetrahydrofuran-2-yl)methyl ((S)-2-((4-cyano-2-methoxybenzyl)oxy)-20,20,20-trifluoroicosyl) hydrogen phosphate] | 215 | 265 |
